Test results taken from patent US20090247559A1 (Exelixis, Inc., priority 2007, published 2009).

Legend:
[1] = target: CK2 (Homo sapiens, UniProt P68400); test: CK2 inhibition, biochemical chemiluminescence holoenzyme assay (Kinase Glo, IC50 determination); conditions: Table 1 activity class; symbol given only if active; read-out: CK2 IC50 (Activity C)
Procedure: Characterization of CK2 Inhibition in a Biochemical Chemiluminesence Assay (IC50 Determination):
The IC50 evaluation of compounds against CK2 was performed in a Chemiluminesence Holoenzyme assay utilizing a Greiner 384-well white medium binding white plate format. […] The assay procedure involves the compound dilution scheme followed by addition of 10 μL of the substrate twice, followed by 10 μL twice of the respective enzyme or buffer to the designated well plates and subsequent pre-incubation of the compounds. Following an incubation period of 150 minutes at ambient temperature (24-27° C.), 10 μL of Kinase Glo (Promega) was added. The luminescence was measured following a Luminescence Protocol on a Victor plate reader.

[2] = target: PIM (PIM-1, PIM-2, and/or PIM-3); test: PIM-1, PIM-2 and PIM-3 inhibition, biochemical chemiluminescence assays (Kinase Glo, IC50 determination); conditions: Table 1 activity class; PIM refers to PIM-1, PIM-2, and/or PIM-3; read-out: PIM IC50 (Activity B)
Procedure: (§1) The IC50 evaluation of compounds against the PIM-1 oncogene was performed in a Chemiluminesence assay utilizing a Greiner 384-well white medium binding white plate format. […] Following an incubation period of 120 minutes at ambient temperature (24-27° C.), 10 μL of Kinase Glo (Promega) was added. The luminescence was measured following a Luminescence Protocol on a Victor plate reader.
The IC50 evaluation of compounds against the PIM-2 oncogene was performed in a Chemiluminesence assay utilizing a Greiner 384-well white medium binding white plate format. […] The assay procedure involves compound dilution followed by addition of 3 nM PIM-2 to the designated well plates and subsequent pre-incubation of the compounds with the enzyme for 30 minutes at ambient temperature (24-27° C.). […] Following an incubation period of 120 minutes at ambient temperature (24-27° C.), 10 μL of Kinase Glo (Promega) was added. The luminescence was measured following a Luminescence Protocol on a Victor plate reader.
as §1, with “PIM-3 Oncogene” for “PIM-1 oncogene”

Chain of CK2 (P68400 whole entry): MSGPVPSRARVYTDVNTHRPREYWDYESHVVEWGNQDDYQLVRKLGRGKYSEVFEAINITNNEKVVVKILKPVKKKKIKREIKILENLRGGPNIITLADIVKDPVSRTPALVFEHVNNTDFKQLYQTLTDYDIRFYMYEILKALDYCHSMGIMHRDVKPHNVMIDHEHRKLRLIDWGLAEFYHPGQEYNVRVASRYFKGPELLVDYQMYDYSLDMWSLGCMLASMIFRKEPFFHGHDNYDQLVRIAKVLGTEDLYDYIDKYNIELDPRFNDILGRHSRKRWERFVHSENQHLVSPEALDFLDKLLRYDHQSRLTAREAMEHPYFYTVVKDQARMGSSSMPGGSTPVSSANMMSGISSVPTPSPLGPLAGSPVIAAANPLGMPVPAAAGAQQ
Chain of CK2 (P67870 whole entry partner): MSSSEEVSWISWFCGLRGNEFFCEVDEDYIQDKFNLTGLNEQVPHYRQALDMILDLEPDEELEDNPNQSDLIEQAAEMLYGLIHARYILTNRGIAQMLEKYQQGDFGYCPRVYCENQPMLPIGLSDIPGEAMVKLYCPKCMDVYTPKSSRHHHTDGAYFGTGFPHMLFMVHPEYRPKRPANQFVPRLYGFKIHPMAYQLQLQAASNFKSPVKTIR

| IC50 [1] [µM] | IC50 [2] [µM] | Structure (SMILES) |
| --- | --- | --- |
| < 10 | < 10 | O=c1[nH]c(-c2ccccc2F)nc2c1oc1ccc(Br)cc12 [Compound 58, 8-Bromo-2-(2-fluorophenyl)[1]benzofuro[3,2-d]pyrimidin-4(3H)-one] |
| < 10 | < 10 | Cc1cc(NC(=O)CN(C)C)ccc1-c1nc2c(oc3ccc(Br)cc32)c(=O)[nH]1 [Compound 62, N-[4-(8-bromo-4-oxo-3,4-dihydro[1]benzofuro[3,2-d]pyrimidin-2-yl)-3-methylphenyl]-N′2′,N′2′-dimethylglycinamide] |
| < 10 | < 10 | COc1ccc(F)c(-c2nc3c(oc4ccc(Br)cc43)c(=O)[nH]2)c1 [Compound 67, 8-bromo-2-[2-fluoro-5-(methyloxy)phenyl][1]benzofuro[3,2-d]pyrimidin-4(3H)-one] |
| < 10 | < 10 | COc1ccc(-c2nc3c(oc4ccc(Br)cc43)c(=O)[nH]2)c(Cl)c1OC [Compound 68, 8-bromo-2-[2-chloro-3,4-bis(methyloxy)phenyl][1]benzofuro[3,2-d]pyrimidin-4(3H)-one] |
| < 10 | < 10 | O=c1[nH]c(-c2ccc(Cl)s2)nc2c1oc1ccc(Br)cc12 [Compound 69, 8-bromo-2-(5-chloro-2-thienyl)[1]benzofuro[3,2-d]pyrimidin-4(3H)-one] |
| < 10 | < 10 | CCc1ccccc1-c1nc2c(oc3ccc(Br)cc32)c(=O)[nH]1 [Compound 77, 8-bromo-2-(2-ethylphenyl)[1]benzofuro[3,2-d]pyrimidin-4(3H)-one] |
| < 10 | < 10 | COc1ccc(Br)c(-c2nc3c(oc4ccc(Br)cc43)c(=O)[nH]2)c1 [Compound 78, 8-bromo-2-[2-bromo-5-(methyloxy)phenyl][1]benzofuro[3,2-d]pyrimidin-4(3H)-one] |
| < 10 | < 10 | COc1ccc(-c2nc3c(oc4ccc(Br)cc43)c(=O)[nH]2)c(Cl)c1 [Compound 79, 8-bromo-2-[2-chloro-4-(methyloxy)phenyl][1]benzofuro[3,2-d]pyrimidin-4(3H)-one] |
| < 10 | < 10 | CSc1ccccc1-c1nc2c(oc3ccc(Br)cc32)c(=O)[nH]1 [Compound 88, 8-bromo-2-[2-(methylthio)phenyl][1]benzofuro[3,2-d]pyrimidin-4(3H)-one] |
| < 10 | < 10 | O=c1[nH]c(-c2cccc(Cl)c2)nc2c1oc1ccc(Br)cc12 [Compound 93, 8-Bromo-2-(3-chlorophenyl)[1]benzofuro[3,2-d]pyrimidin-4(3H)-one] |
| < 10 | < 10 | CN(C)CCCCNc1ccc(-c2nc3c(oc4ccc(Br)cc43)c(=O)[nH]2)c(Cl)c1 [Compound 136, 8-bromo-2-(2-chloro-4-{[4-(dimethylamino)butyl]amino}phenyl)[1]benzofuro[3,2-d]pyrimidin-4(3H)-one] |
| < 10 | < 10 | O=c1[nH]c(-c2ccc(NCc3c[nH]cn3)cc2Cl)nc2c1oc1ccc(Br)cc12 [Compound 139, 8-bromo-2-{2-chloro-4-[(1H-imidazol-4-ylmethyl)amino]phenyl}[1]benzofuro[3,2-d]pyrimidin-4(3H)-one] |
| < 10 | < 10 | COC(=O)c1ccc(-c2nc3c(oc4ccc(Br)cc43)c(=O)[nH]2)c(Cl)c1 [Compound 146, methyl 4-(8-bromo-4-oxo-3,4-dihydro[1]benzofuro[3,2-d]pyrimidin-2-yl)-3-chlorobenzoate] |

The next lines start with the compound.

| Structure (SMILES) | IC50 [1] [µM] | IC50 [2] [µM] |
| --- | --- | --- |
| O=c1[nH]c(-c2cccs2)nc2c1oc1ccc(Br)cc12 [Compound 59, 8-bromo-2-(2-thienyl)[1]benzofuro[3,2-d]pyrimidin-4(3H)-one] | < 10 | < 10 |
| O=c1[nH]c(-c2ccccc2C(F)(F)F)nc2c1oc1ccc(Br)cc12 [Compound 65, 8-bromo-2-[2-(trifluoromethyl)phenyl][1]benzofuro[3,2-d]pyrimidin-4(3H)-one] | < 10 | < 10 |
| COc1cc(Br)c(-c2nc3c(oc4ccc(Br)cc43)c(=O)[nH]2)cc1OC [Compound 66, 8-bromo-2-[2-bromo-4,5-bis(methyloxy)phenyl][1]benzofuro[3,2-d]pyrimidin-4(3H)-one] | < 10 | < 10 |
| O=c1[nH]c(-c2c(F)cccc2F)nc2c1oc1ccc(Br)cc12 [Compound 70, 8-bromo-2-(2,6-difluorophenyl)[1]benzofuro[3,2-d]pyrimidin-4(3H)-one] | < 10 | < 10 |
| CN1CCN(c2ccc(NCc3nc4c(oc5ccc(Br)cc54)c(=O)[nH]3)cc2)CC1 [Compound 75, 8-bromo-2-({[4-(4-methylpiperazin-1-yl)phenyl]amino}methyl)[1]benzofuro[3,2-d]pyrimidin-4(3H)-one] | < 10 | < 10 |
| CC(=O)Nc1ccc(-c2nc3c(oc4ccc(Br)cc43)c(=O)[nH]2)cc1 [Compound 80, N-[4-(8-bromo-4-oxo-3,4-dihydro[1]benzofuro[3,2-d]pyrimidin-2-yl)phenyl]acetamide] | < 10 | < 10 |
| O=c1[nH]c(-c2ncc[nH]2)nc2c1oc1ccc(Br)cc12 [Compound 85, 8-bromo-2-(1H-imidazol-2-yl)[1]benzofuro[3,2-d]pyrimidin-4(3H)-one] | < 10 | < 10 |
| O=C(NC1CCCCC1)c1cccc(-c2nc3c(oc4ccc(Br)cc43)c(=O)[nH]2)c1 [Compound 92, 3-(8-bromo-4-oxo-3,4-dihydro[1]benzofuro[3,2-d]pyrimidin-2-yl)-N-cyclohexylbenzamide] | < 10 | < 10 |
| O=c1[nH]c(-c2ccccc2Cl)nc2c1oc1ccc3ccccc3c12 [Compound 96, 10-(2-Chlorophenyl)naphtho[1′,2′:4,5]furo[3,2-d]pyrimidin-8(9H)-one] | < 10 | < 10 |
| O=C(NCc1ccccc1)c1cccc(-c2nc3c(oc4ccc(Br)cc43)c(=O)[nH]2)c1 [Compound 99, 3-(8-bromo-4-oxo-3,4-dihydro[1]benzofuro[3,2-d]pyrimidin-2-yl)-N-(phenylmethyl)benzamide] | < 10 | < 10 |
| CC(C)CNC(=O)c1cccc(-c2nc3c(oc4ccc(Br)cc43)c(=O)[nH]2)c1 [Compound 101, 3-(8-bromo-4-oxo-3,4-dihydro[1]benzofuro[3,2-d]pyrimidin-2-yl)-N-(2-methylpropyl)benzamide] | < 10 | < 10 |
| CN1CCN(c2ccc(COCc3nc4c(oc5ccc(Br)cc54)c(=O)[nH]3)cc2)CC1 [Compound 102, 8-bromo-2-[({[4-(4-methylpiperazin-1-yl)phenyl]methyl}oxy)methyl][1]benzofuro[3,2-d]pyrimidin-4(3H)-one] | < 10 | < 10 |
| CN(C)c1ccc(CNCc2nc3c(oc4ccc(Br)cc43)c(=O)[nH]2)cc1 [Compound 104, 8-bromo-2-[({[4-(dimethylamino)phenyl]methyl}amino)methyl][1]benzofuro[3,2-d]pyrimidin-4(3H)-one] | < 10 | < 10 |
| O=c1[nH]c(CCN2CCCC2)nc2c1oc1ccc(Br)cc12 [Compound 105] | < 10 | < 10 |
| O=c1[nH]c(CC2CCNCC2)nc2c1oc1ccc(Br)cc12 [Compound 122, 8-bromo-2-(piperidin-4-ylmethyl)[1]benzofuro[3,2-d]pyrimidin-4(3H)-one] | < 10 | < 10 |
| COc1ccc2oc3c(=O)[nH]c(-c4cc([N+](=O)[O-])ccc4Cl)nc3c2c1 [Compound 145, 2-(2-chloro-5-nitrophenyl)-8-(methyloxy)[1]benzofuro[3,2-d]pyrimidin-4(3H)-one] | < 10 | < 10 |
| CCc1nccn1Cc1nc2c(oc3ccc(Br)cc32)c(=O)[nH]1 [Compound 149, 8-bromo-2-[(2-ethyl-1H-imidazol-1-yl)methyl][1]benzofuro[3,2-d]pyrimidin-4(3H)-one] | < 10 | < 10 |
| CCN1CCN(Cc2nc3c(oc4ccc(Br)cc43)c(=O)[nH]2)CC1 [Compound 150, 8-bromo-2-[(4-ethylpiperazin-1-yl)methyl][1]benzofuro[3,2-d]pyrimidin-4(3H)-one] | < 10 | < 10 |
| COCCN1CCN(Cc2nc3c(oc4ccc(Br)cc43)c(=O)[nH]2)CC1 [Compound 151, 8-bromo-2-({4-[2-(methyloxy)ethyl]piperazin-1-yl}methyl)[1]benzofuro[3,2-d]pyrimidin-4(3H)-one] | < 10 | < 10 |
| COc1ccc2oc3c(=O)[nH]c(-c4ccncc4Cl)nc3c2c1 [Compound 152, 2-(3-chloropyridin-4-yl)-8-(methyloxy)[1]benzofuro[3,2-d]pyrimidin-4(3H)-one] | < 10 | < 10 |
